Test systems include HL-60; KM12; K562; SR; RPMI-8226; SK-OV-3; U-251; COLO 205; HT-29; UACC-62; OVCAR-3; M14; HOP-62; MOLT-4; SF-539; NCI-H522; NCI-H460; RXF 393.
Assay in all cases: NCI tumour cell line growth inhibition, 48 h

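Following 48 hours of exposure in 96-well plates, responses at five concentrations were used to interpolate endpoints linearly. GI50: concentration for 50% inhibition of growth.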 Active and inactive are the calls of the source. Cut-off read from the data, not from the text of the source: active = GI50 up to about 1.1 µM and inactive = higher.

In the case of `CC(=O)OCC1=C(COC(C)=O)C(=O)c2c(O)ccc(O)c2C1=O`, the GI50 in the test on HL-60 is 1.49 µM (inactive); in the test on KM12, 13.3 µM (inactive); in the test with K562, 17.9 µM (inactive); in the test with SR, 5.47 µM (inactive); in the test with RPMI-8226, 3.2 µM (inactive); in the test with SK-OV-3, 18.8 µM (inactive). In addition, the GI50 with U-251 was 13.1 µM (inactive); with COLO 205 it was 2.38 µM (inactive); in the test with HT-29, 11.7 µM (inactive); in the test with UACC-62, 5.56 µM (inactive); in the test with OVCAR-3, 7.1 µM (inactive); in the test with M14, 5.3 µM (inactive). The GI50 in the test with HOP-62 is 21 µM (inactive); in the test on MOLT-4, 1.37 µM (inactive); with SF-539, 6.34 µM (inactive); with NCI-H522, 1.55 µM (inactive).
For the compound `O=C(Nc1nc2ncn(CCNCc3ccccc3)c2c(=O)[nH]1)c1ccccc1`, the GI50 in the test on HL-60 was > 100 µM (inactive); in the test on KM12, > 100 µM (inactive); in the test with K562, > 100 µM (inactive); in the test on SR, > 100 µM (inactive); with RPMI-8226 it was 65.3 µM (inactive); in the test on NCI-H460 it was > 100 µM (inactive). Moreover, the GI50 in the test on SK-OV-3, in the test on U-251, in the test on COLO 205, with HT-29, in the test on UACC-62 and in the test on OVCAR-3 was > 100 µM (inactive) each time. In addition, the GI50 in the test with M14 was > 100 µM (inactive); with HOP-62, > 100 µM (inactive); with RXF 393 it was 91 µM (inactive); with SF-539, > 100 µM (inactive); in the test on NCI-H522 it was > 100 µM (inactive).
In the case of `S=c1sc2cscc2s1`, the GI50 in the test with HL-60 was 28.1 µM (inactive); in the test with KM12, 17.6 µM (inactive); in the test on K562, 42.6 µM (inactive); in the test on SR, 27.8 µM (inactive); with RPMI-8226 it was 47.6 µM (inactive); in the test with NCI-H460, 24.1 µM (inactive). Besides, the GI50 in the test with SK-OV-3 was 27.5 µM (inactive); in the test with U-251, 53.2 µM (inactive); in the test with COLO 205, 17.7 µM (inactive); with HT-29, 44.1 µM (inactive); in the test on UACC-62, 18.2 µM (inactive); in the test with OVCAR-3 it was 19.5 µM (inactive). For the same compound, the GI50 in the test with M14 is 19.1 µM (inactive); in the test with HOP-62 it was 32.8 µM (inactive); in the test with RXF 393, 35.2 µM (inactive); with MOLT-4 it was 34.4 µM (inactive); in the test with SF-539 it was 23 µM (inactive); with NCI-H522 it was 19.3 µM (inactive).
Consider `OCc1nnn2c1CCC2`, for which the GI50 in the test on HL-60, in the test with KM12, in the test on K562, in the test on SR, in the test on NCI-H460 and in the test with SK-OV-3 was > 100 µM (inactive) in each case. For the same compound, the GI50 with U-251, with HT-29, with UACC-62, with OVCAR-3, in the test with M14 and in the test with HOP-62 was > 100 µM (inactive) throughout. The GI50 with RXF 393, in the test with MOLT-4, in the test on SF-539 and in the test with NCI-H522 was > 100 µM (inactive) throughout.
For `Oc1nc(-c2ccccc2)cc(-c2ccccc2O)n1`, the GI50 in the test with HL-60 is 79.1 µM (inactive); in the test on KM12 it was > 100 µM (inactive); in the test with K562, > 100 µM (inactive); in the test with SR, > 100 µM (inactive); with RPMI-8226, 83.9 µM (inactive); with NCI-H460 it was 87.5 µM (inactive). Further, the GI50 with SK-OV-3 is > 100 µM (inactive); in the test on U-251 it was 42.2 µM (inactive); in the test with COLO 205 it was > 100 µM (inactive); in the test on HT-29 it was 56.6 µM (inactive); in the test on UACC-62, 77.3 µM (inactive); in the test with OVCAR-3, 98.2 µM (inactive). The GI50 in the test with M14 was > 100 µM (inactive); in the test on HOP-62, 30.5 µM (inactive); with RXF 393 it was 86.5 µM (inactive); with MOLT-4, 67 µM (inactive); in the test with SF-539, > 100 µM (inactive); with NCI-H522, 69.3 µM (inactive).
Regarding `CC12CC3(C)CC(C)(C1)CC(N=[N+]=[N-])(C2)C3`, the GI50 with KM12, in the test with K562, with SR, with RPMI-8226, with NCI-H460 and in the test on SK-OV-3 was > 100 µM (inactive) each time. Besides, the GI50 in the test on U-251, in the test on COLO 205, with HT-29, in the test on UACC-62, in the test with OVCAR-3 and with M14 was > 100 µM (inactive) each time. In addition, the GI50 in the test with HOP-62, with RXF 393, in the test with MOLT-4, in the test on SF-539 and with NCI-H522 was > 100 µM (inactive) each time.
On to `CN(C)C(=S)/N=c1\ss/c(=N\S(=O)(=O)c2ccccc2)n1-c1ccccc1`, for which the GI50 in the test with HL-60 is 4.33 µM (inactive); in the test on KM12, 0.217 µM (active); in the test with K562, 0.953 µM (active); in the test with RPMI-8226, 0.344 µM (active); with SK-OV-3 it was 89.7 µM (inactive); in the test on U-251, 27 µM (inactive). The GI50 is 0.0522 µM (active) in the test on HT-29; 0.297 µM (active) in the test with UACC-62; 6.4 µM (inactive) with OVCAR-3; 20.6 µM (inactive) with M14; 22.9 µM (inactive) in the test on HOP-62; 57.5 µM (inactive) in the test on RXF 393. In addition, the figures for the GI50 in the test with MOLT-4, in the test with SF-539 and in the test with NCI-H522 were 5.35 µM (inactive), 19.7 µM (inactive) and 0.0855 µM (active), respectively.
On to `O=C1C(c2ccc(C3=[N+]([O-])c4cc([N+](=O)[O-])ccc4C3=O)cc2)=[N+]([O-])c2cc([N+](=O)[O-])ccc21`, for which the GI50 with HL-60, with KM12, with K562, in the test on RPMI-8226, in the test with NCI-H460 and with SK-OV-3 was > 10 µM (inactive) in each case. The GI50 with U-251, with COLO 205, with HT-29, with UACC-62, in the test with OVCAR-3 and with M14 was > 10 µM (inactive) in each case. The GI50 with HOP-62 is 66.7 µM (inactive); with RXF 393, > 10 µM (inactive); in the test with MOLT-4 it was > 10 µM (inactive); in the test with SF-539 it was > 10 µM (inactive); with NCI-H522 it was > 10 µM (inactive).
With `Cc1nc2ccccc2c(=O)n1/N=C(\N=N\c1cc(Cl)ccc1Cl)c1ccc(N(C)C)cc1`, the GI50 was 22.9 µM (inactive) in the test on HL-60; 57.1 µM (inactive) in the test on K562; 26.2 µM (inactive) in the test with RPMI-8226; 45.7 µM (inactive) in the test with NCI-H460; 28.2 µM (inactive) with SK-OV-3; 38.1 µM (inactive) with U-251. The GI50 was 78.3 µM (inactive) in the test on COLO 205; 42 µM (inactive) with HT-29; 34.5 µM (inactive) in the test on UACC-62; 26.9 µM (inactive) in the test with HOP-62; 27.2 µM (inactive) in the test with RXF 393; 25.2 µM (inactive) with MOLT-4. The GI50 in the test with SF-539 was 33 µM (inactive); with NCI-H522, 25 µM (inactive).

The record behind these values is ChEMBL document CHEMBL1201862, “PubChem BioAssay data set” (2004).
